According to ChEMBL document CHEMBL1201862, “PubChem BioAssay data set” (2004):
Calls of active or inactive are those of the source.

Tests used:
[1] = system: HeLa; test: viability loss in HeLa cells – cell-based, 24 h, cherry-picked samples, cytotoxicity control, dose response (AID 504726); format: functional; conditions: Homo sapiens
[2] = system: CHO; test: CHO cell viability loss, potency – luminescence, cytotoxicity control for TLR9-MyD88 binding inhibitor project, dose response (AID 588339); format: functional, cell-based, hamster; conditions: Cricetulus griseus;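 also: CHO cells stably coexpressing TLR9 and MyD88 fusions from primary screen; compound exposure lasted 48 hours before viability readout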
[3] = molecular target: Troponin, cardiac muscle (Homo sapiens, UniProt P19429+P45379+P63316); test: Fluorescence-based biochemical high throughput dose response assay for activators of the calcium sensitivity of cardiac Regulated Thin Filaments (RTF). [Related pubchem assays (depositor defined):AID493008, AID493018, AID504382, AID504383]; format: protein-complex assay
[4] = molecular target: Beta Lactamase (Pseudomonas aeruginosa, UniProt Q932Y6); test: BLA reporter interference, concentration series – BLA reporter cells, FRET fluorescence, artefact control for TLR9-MyD88 binding inhibitor project, dose response (AID 588341); format: cell-based;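 also: cell based assay in CHO-K1 cells stably expressing beta-lactamase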
[5] = system: Streptococcus; test: GAS UMAA2166 growth inhibition – luminescence, BacTiterGlo, counter-screen for streptokinase expression inhibitor project, dose response (AID 1915); format: functional, organism-based;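 also: potency for reduction of bacterial viability or growth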
[6] = fluconazole-exposed Candida albicans growth modulators – fluorescence, retest, confirmation (AID 2467); format: functional, cell-based
[7] = cells; format: functional, cell-based; conditions: HEK-CNG
[8] = molecular target: ATP-dependent molecular chaperone HSP82 (Candida albicans (strain WO-1) (Yeast), UniProt C4YTQ8); test: steroid-induced GRE reporter decrease in yeast – S. cerevisiae, luminescence, Hsp90 inhibitor project, dose response (AID 2400); format: functional, cell-based;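 also: beta-galactosidase luminescence from glucocorticoid response element reporter as proxy for Hsp90 function; inhibitor potency where signal loss means Hsp90 inhibition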
[9] = molecular target: Serine/threonine-protein phosphatase (Candida dubliniensis (strain CD36 / CBS 7987 / NCPF 3949 / NRRLY-17841) (Yeast), UniProt B9W6M3); test: blockers of CaCl2-induced CDRE-lacZ signaling – S. cerevisiae, luminescence, secondary, dose response (AID 2388); format: functional, cell-based;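 also: yeast reporter cells carrying a calcineurin-responsive lacZ construct stimulated with calcium chloride; luminescent beta-galactosidase reporter signal in whole cells rather than isolated phosphatase activity; potency for inhibition where a drop in reporter signal means calcineurin blockade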
[10] = molecular target: T1, COUP transcription factor 2 (Homo sapiens, UniProt P24468); test: Luminescence-based cell-based high throughput dose response assay to identify inhibitors of COUP-TFII (NR2F2).; format: functional;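 also: HEK293 cells transiently cotransfected with COUP-TFII expression vector and reporter; luciferase reporter luminescence driven by COUP-TFII from the pX2-168 reporter plasmid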
T1 sequence (P24468 whole entry): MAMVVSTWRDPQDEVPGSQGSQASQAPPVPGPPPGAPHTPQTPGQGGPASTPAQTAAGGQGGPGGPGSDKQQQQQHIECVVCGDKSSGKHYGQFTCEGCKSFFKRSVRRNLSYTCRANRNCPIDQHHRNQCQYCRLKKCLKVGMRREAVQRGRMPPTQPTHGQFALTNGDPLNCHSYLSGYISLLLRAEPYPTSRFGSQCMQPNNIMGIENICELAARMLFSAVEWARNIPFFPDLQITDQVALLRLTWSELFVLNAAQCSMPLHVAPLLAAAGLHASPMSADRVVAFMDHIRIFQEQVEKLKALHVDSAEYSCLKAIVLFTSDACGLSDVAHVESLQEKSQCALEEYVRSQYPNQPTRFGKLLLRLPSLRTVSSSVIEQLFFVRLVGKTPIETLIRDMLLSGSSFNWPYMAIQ

[11] = NIH-3T3 fibroblast cytotoxicity, dose response, cytotoxicity control, cell-based, fluorescence, Alamar Blue, secondary assay (AID 2327); format: functional;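 also: NIH-3T3 mouse fibroblasts cultured with fluconazole at 8 µg/mL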
[12] = system: Streptococcus sp. 'group A'; test: Streptococcus pyogenes SK(-)GAS viability under kanamycin – luminescence, BacTiterGlo, confirmation, counter-screen for streptokinase expression inhibitor project, dose response (AID 1900); format: functional, organism-based
[13] = luciferase reporter signal suppression in cells – H4 neuroglioma cells, luminescence, dose response (AID 1990); format: functional, cell-based
[14] = molecular target: T2, Galanin receptor type 3 (Homo sapiens, UniProt O60755); test: Fluorescence-based cell-based primary high throughput dose response assay to identify antagonists of the Galanin Receptor 3 (GalR3).; format: functional
T2 sequence (O60755 whole entry): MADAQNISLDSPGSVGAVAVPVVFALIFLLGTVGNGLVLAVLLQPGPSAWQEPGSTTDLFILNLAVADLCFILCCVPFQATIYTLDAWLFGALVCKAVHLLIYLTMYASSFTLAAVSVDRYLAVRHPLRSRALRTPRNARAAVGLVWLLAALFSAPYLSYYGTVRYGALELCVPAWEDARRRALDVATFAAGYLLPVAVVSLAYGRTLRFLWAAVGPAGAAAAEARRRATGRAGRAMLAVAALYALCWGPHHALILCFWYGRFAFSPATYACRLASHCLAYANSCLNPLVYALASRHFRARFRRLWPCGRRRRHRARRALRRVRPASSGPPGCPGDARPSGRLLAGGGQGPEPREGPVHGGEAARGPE

[15] = Luminescence Cell-Based Dose Response HTS to Identify Inhibitors of 5'UTR Stem-Loop Driven Prion Protein mRNA Translation in H4 Neuroglioblastoma Cells. [Related pubchem assays: 1827 (Project Summary), 1813 (Primary HTS)]; format: functional
[16] = non-specific 3'UTR reporter inhibition in Clone20-Shn3RL – cell-based, Renilla luciferase, cherry-picked, counter-screen for Shn3 inhibitor project, dose response (AID 624133); format: functional
[17] = alpha-synuclein stem-loop luciferase translation blockers – H4 neuroglioma cells, luminescence, confirmation (AID 1988); format: functional, cell-based
[18] = molecular target: T3, Streptokinase A (Streptococcus pyogenes serotype M1, UniProt P10520); test: viability-normalized secreted streptokinase activity reduction – plasminogen activation absorbance, OD405, dose response (AID 1914); format: functional, Streptococcus pyogenes M1 GAS;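 also: secreted streptokinase activity via plasminogen activation per viability signal from cell pellet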
T3 sequence (P10520 whole entry): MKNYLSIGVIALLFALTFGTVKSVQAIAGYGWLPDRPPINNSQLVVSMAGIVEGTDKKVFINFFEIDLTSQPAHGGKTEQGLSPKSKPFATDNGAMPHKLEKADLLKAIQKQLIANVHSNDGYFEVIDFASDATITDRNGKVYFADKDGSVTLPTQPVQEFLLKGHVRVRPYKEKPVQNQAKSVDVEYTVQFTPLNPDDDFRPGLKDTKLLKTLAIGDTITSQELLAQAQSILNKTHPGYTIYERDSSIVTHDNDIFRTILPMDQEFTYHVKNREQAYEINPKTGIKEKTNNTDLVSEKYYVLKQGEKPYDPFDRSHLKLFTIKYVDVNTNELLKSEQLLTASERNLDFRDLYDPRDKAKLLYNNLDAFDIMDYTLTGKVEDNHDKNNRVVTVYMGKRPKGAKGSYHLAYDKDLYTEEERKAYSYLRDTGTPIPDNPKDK

[19] = molecular target: T4, Sentrin-specific protease 7 (Homo sapiens, UniProt Q9BQF6); test: inhibition of human SENP7 cleavage activity – biochemical, luminescence, SAR follow-up (AID 504497); format: functional
T4 sequence (Q9BQF6 whole entry): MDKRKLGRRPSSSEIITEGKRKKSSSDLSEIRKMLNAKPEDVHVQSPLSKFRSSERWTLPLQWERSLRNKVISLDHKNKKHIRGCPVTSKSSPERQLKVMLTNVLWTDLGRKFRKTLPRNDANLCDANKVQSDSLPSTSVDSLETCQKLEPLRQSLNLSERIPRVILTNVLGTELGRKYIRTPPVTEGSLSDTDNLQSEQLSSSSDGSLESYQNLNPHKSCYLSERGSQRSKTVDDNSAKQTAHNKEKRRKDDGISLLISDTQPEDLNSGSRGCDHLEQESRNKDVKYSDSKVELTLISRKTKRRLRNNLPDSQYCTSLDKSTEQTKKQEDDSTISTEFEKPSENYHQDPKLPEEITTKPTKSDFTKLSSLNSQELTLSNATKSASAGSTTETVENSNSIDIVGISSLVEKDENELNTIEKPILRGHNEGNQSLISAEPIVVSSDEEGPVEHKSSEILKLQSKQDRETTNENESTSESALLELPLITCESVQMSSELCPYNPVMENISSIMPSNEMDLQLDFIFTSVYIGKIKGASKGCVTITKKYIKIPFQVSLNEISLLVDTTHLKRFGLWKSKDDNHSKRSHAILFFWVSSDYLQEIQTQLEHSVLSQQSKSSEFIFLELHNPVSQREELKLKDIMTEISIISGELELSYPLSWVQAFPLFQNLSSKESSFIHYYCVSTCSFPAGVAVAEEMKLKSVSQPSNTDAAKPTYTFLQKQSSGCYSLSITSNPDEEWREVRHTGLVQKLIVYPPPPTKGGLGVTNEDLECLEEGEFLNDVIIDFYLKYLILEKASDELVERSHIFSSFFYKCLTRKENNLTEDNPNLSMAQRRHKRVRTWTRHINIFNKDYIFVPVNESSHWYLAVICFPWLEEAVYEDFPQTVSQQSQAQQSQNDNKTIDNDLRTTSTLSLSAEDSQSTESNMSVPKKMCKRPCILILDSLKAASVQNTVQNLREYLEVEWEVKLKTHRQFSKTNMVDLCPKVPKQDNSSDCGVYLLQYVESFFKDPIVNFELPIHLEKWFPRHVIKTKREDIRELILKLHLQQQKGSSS

[20] = molecular target: T5, Sentrin-specific protease 8 (Homo sapiens, UniProt Q96LD8); test: inhibition of human SENP8 cleavage activity – biochemical, luminescence, SAR follow-up (AID 504501); format: functional
T5 sequence (Q96LD8 whole entry): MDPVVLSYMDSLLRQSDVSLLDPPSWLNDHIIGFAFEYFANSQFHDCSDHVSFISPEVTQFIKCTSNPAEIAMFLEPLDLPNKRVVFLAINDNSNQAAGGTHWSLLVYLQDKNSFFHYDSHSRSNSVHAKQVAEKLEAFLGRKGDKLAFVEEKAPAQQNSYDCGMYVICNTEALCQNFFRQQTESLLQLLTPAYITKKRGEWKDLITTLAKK

[21] = molecular target: T6, Caspase-3 (Homo sapiens, UniProt P42574); test: SAR Analysis of small molecule inhibitors of Sentrin-specific proteases (SENPs) using a Caspase-3 Selectivity assay. [Related pubchem assays (depositor defined):AID2540, AID2599, AID434973, AID489001]; format: functional
T6 sequence (P42574 whole entry): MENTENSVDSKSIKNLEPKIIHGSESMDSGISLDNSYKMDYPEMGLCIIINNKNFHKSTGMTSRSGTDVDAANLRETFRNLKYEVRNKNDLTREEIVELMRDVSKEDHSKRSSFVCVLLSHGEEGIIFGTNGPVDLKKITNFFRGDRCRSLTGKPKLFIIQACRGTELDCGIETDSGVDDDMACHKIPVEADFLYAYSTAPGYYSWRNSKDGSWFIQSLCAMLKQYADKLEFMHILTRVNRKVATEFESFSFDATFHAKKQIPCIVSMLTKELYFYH

[22] = molecular target: T7, Sentrin-specific protease 6 (Homo sapiens, UniProt Q9GZR1); test: SAR Analysis of small molecule inhibitors of Sentrin-specific protease 6 (SENP6) using a Luminescent assay. [Related pubchem assays (depositor defined):AID2582, AID2599]; format: functional
T7 sequence (Q9GZR1 whole entry): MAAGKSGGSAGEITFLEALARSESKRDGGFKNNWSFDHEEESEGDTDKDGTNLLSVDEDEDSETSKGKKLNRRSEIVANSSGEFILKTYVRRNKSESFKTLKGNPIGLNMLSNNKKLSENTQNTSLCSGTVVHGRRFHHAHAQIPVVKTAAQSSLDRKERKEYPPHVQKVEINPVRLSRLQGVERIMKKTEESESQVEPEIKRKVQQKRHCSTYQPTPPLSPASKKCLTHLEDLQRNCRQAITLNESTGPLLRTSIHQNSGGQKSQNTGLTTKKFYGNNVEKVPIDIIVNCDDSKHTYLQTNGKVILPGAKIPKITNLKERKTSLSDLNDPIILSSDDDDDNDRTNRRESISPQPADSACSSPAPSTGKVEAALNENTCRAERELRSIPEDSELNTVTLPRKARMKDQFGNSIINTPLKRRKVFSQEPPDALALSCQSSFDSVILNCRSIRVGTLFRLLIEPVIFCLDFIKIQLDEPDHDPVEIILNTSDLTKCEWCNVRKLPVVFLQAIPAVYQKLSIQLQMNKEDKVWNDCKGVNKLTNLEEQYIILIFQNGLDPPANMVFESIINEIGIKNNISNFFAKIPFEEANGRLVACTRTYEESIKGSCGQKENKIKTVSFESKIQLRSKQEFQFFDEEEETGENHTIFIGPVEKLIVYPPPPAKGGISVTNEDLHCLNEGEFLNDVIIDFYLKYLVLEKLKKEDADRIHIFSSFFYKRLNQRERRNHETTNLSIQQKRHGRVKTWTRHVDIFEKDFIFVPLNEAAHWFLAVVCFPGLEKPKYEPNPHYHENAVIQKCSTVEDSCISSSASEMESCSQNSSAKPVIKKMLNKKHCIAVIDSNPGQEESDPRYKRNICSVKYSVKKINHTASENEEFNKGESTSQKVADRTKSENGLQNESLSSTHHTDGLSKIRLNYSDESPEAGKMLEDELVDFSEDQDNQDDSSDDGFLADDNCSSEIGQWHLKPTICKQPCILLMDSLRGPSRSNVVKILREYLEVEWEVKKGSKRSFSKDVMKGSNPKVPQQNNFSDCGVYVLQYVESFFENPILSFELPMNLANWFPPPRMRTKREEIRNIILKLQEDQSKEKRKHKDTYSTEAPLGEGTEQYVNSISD

[23] = molecular target: DNA topoisomerase (Yersinia pestis, UniProt A0A2S9PM60); test: Yersinia topoisomerase I cleavage product accumulation – biochemical, cherry-pick, dose response (AID 588525)
DNA topoisomerase, sequence (A0A2S9PM60 whole entry): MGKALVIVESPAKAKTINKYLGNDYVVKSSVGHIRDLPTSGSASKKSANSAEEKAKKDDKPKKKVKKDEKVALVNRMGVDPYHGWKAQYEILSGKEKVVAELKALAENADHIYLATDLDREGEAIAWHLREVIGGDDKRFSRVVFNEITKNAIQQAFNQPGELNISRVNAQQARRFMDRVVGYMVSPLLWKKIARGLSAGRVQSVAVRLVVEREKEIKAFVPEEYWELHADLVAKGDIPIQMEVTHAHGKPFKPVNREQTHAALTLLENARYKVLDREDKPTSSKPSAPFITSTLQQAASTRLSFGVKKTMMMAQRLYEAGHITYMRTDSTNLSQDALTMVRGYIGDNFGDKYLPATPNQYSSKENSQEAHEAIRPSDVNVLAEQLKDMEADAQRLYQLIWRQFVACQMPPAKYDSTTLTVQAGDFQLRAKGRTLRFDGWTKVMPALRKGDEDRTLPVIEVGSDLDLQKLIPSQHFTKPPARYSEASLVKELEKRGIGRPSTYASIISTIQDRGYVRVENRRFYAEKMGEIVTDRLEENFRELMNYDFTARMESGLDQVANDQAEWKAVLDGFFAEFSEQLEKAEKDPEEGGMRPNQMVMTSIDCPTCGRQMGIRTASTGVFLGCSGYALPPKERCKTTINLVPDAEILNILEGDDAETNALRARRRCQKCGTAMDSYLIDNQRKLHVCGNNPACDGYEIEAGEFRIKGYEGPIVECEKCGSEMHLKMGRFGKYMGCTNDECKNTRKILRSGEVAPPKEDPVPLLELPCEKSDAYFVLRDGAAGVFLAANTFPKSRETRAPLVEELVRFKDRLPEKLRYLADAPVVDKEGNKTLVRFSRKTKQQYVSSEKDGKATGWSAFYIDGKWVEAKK

ATP-dependent molecular chaperone HSP82, sequence (C4YTQ8 whole entry): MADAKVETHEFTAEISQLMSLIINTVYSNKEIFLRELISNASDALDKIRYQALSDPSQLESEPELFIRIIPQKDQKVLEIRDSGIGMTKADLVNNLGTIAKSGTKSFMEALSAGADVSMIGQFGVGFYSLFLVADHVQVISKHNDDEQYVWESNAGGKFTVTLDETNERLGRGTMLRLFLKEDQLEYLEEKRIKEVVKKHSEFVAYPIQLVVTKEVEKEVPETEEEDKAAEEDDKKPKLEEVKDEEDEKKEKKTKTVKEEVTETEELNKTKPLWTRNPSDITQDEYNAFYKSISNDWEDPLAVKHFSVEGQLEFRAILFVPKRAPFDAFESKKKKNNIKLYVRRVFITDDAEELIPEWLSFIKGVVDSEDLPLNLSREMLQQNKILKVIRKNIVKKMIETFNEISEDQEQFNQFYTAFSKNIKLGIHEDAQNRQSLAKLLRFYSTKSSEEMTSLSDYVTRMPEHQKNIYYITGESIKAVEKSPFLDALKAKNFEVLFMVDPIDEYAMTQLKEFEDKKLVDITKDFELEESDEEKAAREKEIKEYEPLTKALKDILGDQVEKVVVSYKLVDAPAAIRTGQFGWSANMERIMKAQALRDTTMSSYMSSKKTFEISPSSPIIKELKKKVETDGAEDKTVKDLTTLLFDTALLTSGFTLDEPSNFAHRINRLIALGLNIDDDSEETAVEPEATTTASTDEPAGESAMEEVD
Serine/threonine-protein phosphatase, sequence (B9W6M3 whole entry): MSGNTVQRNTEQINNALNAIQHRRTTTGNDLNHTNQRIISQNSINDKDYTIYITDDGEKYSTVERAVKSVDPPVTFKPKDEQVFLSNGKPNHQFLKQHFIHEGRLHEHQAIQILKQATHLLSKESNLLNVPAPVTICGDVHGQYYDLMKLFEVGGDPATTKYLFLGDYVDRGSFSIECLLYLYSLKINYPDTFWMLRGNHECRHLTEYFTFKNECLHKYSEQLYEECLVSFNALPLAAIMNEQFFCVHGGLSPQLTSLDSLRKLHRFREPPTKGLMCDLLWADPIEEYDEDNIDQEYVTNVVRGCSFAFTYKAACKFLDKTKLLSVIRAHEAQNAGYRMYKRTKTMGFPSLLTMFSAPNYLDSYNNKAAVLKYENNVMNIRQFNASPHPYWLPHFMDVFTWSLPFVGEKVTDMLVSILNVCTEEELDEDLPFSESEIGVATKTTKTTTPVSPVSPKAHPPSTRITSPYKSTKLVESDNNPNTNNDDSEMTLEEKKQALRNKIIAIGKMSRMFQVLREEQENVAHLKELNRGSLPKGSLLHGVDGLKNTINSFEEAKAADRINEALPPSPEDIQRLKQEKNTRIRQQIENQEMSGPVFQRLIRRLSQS
Beta Lactamase, sequence (Q932Y6 whole entry): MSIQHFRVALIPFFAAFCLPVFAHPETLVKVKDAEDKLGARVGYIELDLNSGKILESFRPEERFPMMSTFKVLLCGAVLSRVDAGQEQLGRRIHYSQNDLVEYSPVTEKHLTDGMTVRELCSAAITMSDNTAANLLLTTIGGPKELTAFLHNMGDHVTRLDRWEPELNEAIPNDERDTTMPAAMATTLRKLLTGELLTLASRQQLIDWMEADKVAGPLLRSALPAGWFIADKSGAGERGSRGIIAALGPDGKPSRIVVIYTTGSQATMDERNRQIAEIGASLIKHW

SMILES: O=C1c2cccc3c(N4CCCCC4)ccc(c23)C(=O)N1c1cccc(O)c1
- AC50 [1]: 81.5 µM (active)
- IC50 [2]: > 49.7 µM (inactive)
- EC50 [3]: 1.83 µM (active)
- IC50 [4]: 5.24 µM (active)

SMILES: CC(C)(C)c1ccc(CSc2cnn(C(C)(C)C)c(=O)c2Cl)cc1 [PYRIDABEN]
- EC50 [5]: 123 µM (active)
- EC50 [6]: 0.211 µM (active)
- EC50 [7]: > 29.9 µM (inactive)
- EC50 [8]: > 160 µM (inactive)
- EC50 [9]: > 180 µM (inactive)
- IC50 [10]: 0.0619 µM (active)
- EC50 [11]: 103 µM (active)
- EC50 [12]: 4.13 µM (active)
- EC50 [13]: > 120 µM (not active)
- IC50 [14]: 0.00657 µM (active)
- EC50 [15]: > 120 µM (not active)
- AC50 [16]: < 0.26 µM (active)
- EC50 [17]: > 120 µM (not active)
- EC50 [18]: 20.8 µM (active)

SMILES: Cc1ccc(Cl)c2sc(NC(=O)c3ccc(S(=O)(=O)N4CC(C)CC(C)C4)cc3)nc12 (stereo not drawn)
- IC50 [19]: > 99 µM (inactive)
- IC50 [20]: > 99 µM (inactive)
- IC50 [21]: > 99 µM (inactive)
- IC50 [22]: > 99 µM (inactive)

SMILES: CC(C)CN(C(=O)COC(=O)c1c2c(nc3ccccc13)CCC2)c1c(N)n(Cc2ccccc2)c(=O)[nH]c1=O
- AC50 [23]: > 38 µM (inactive)
